Reference: patent US9296716B2, “Androgen receptor ligands” (THE PROVOST, FELLOWS, FOUNDATION SCHOLARS, & THE OTHER …, priority 2011, dated 2016)
Changes are numbered by the printed parent chain. Read-outs that look alike come from different tables or passages of the source.

Experiments:
Type in all cases: biochemical
AR-LBD T877A mutant = target: T1, AR-LBD T877A mutant (Homo sapiens, UniProt P10275, T878A); test: TR-FRET coactivator assay, AR T877A mutant; details: D11-FxxLF peptide, DHT = EC80
T1 construct: purchased Invitrogen PV4667
T1 sequence (P10275 669-900 T878A): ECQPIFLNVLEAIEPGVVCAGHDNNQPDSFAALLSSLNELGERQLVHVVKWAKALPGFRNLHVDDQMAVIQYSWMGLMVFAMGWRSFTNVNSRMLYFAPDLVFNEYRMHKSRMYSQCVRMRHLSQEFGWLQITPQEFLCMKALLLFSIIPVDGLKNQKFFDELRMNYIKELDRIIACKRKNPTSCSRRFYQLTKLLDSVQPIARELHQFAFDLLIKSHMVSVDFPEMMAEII

[1] = target: T2, Estrogen Receptor alpha (ER-α) LBD (Homo sapiens, UniProt P03372); test: TR-FRET PGC1-α coactivator recruitment assay, ERα LBD; details: Estradiol = EC80
T2 sequence (P03372 311-547 limits assumed): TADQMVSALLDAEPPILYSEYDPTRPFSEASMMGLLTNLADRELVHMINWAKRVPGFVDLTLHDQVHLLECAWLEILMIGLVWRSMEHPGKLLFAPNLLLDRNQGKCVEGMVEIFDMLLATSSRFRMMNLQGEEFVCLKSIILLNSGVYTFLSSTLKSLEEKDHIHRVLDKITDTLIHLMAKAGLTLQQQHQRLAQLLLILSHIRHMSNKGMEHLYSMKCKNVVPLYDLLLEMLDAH
Experimental: (§1) Compound binding affinities for Progesterone Receptor (PR), Glucocorticoid Receptor (GR), Estrogen Receptor alpha and Estrogen Receptor beta were determined using TR-FRET (Table 2).
(§2) Selectivity of the diarylhydrazide scaffold for the AR was determined through a TR-FRET assay in ERα (FIGS. 8A & 9A1) and ERR (FIGS. 8B & 9A2). […] The non-LBP nature of this inhibition was confirmed by a FP assay (FIGS. 9C, 9B1 & 9B2).
(§3) Lanthascreen TR-FRET AR Coactivator Assay kit (Invitrogen, cat no. PV4381) was used to screen for potential coactivator disruptors.
(§4) TR FRET values were calculated at 10 flashes per well, using a delay time of 100 μs and integration time 200 μs as recommended by the Invitrogen assay guidelines. […] A serial dilution of compounds was firstly prepared in 100×DMSO (Sigma-Aldrich) starting from the maximum desired concentration to achieve a 12 point range concentration using 96-well polypropylene plates (Nalgene Nunc, Rochester, N.Y.). Each 100× solution was diluted to 2× concentration with TR-FRET co-regulator buffer A (Invitrogen proprietary buffer), yielding a final concentration of 1% DMSO in each well.
(§5) D11-FxxLF and Tb antibody were premixed in light protecting vials prior to use. A final concentration of DTT 5 mM was used in the assay buffer in order to prevent protein degradation. All plates (agonist and antagonist mode) were incubated between 2 and 4 hours at room temperature protected from light prior to TR-FRET measurement. […] Data was fitted using the sigmoidal dose response (variable slope) available from Graphpad Prism 5. Y=Bottom+(Top-Bottom)/(1+10^((Log IC50−X)*HillSlope))
(§6) The same procedure was used for AR T877A (Invitrogen cat no. PV4667), PR (Invitrogen cat no. PV4666), ER-α (Invitrogen cat no. PV4544), ER-β (Invitrogen cat no. PV4541) and GR (Invitrogen cat no. PV4683). The assay was adapted to exclude possible non-specific aggregation mechanism of inhibition by adding very low concentration of detergent Triton X-100 (0.001%) to the assay buffer following the Shoichet review guidelines [Shoichet BK (2006) Screening in a spirit haunted world. Drug Discov Today 11:607-615].

[2] = target: Estrogen Receptor beta (ER-β) LBD (Homo sapiens, UniProt Q92731); test: TR-FRET PGC1-α coactivator recruitment assay, ERβ LBD; details: Estradiol = EC80
Sequence of Estrogen Receptor beta (ER-β) LBD (Q92731 264-498 limits assumed): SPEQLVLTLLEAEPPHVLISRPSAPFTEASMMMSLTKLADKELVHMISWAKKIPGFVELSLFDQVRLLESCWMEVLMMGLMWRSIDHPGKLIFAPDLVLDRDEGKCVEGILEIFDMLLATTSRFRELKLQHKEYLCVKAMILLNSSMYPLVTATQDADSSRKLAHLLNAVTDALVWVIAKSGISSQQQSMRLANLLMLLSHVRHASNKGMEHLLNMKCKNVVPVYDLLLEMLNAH
Experimental: as §1, §2, §3, §4, §5, §6

AR-LBD wt = target: T3, AR-LBD wt (Homo sapiens, UniProt P10275); test: Lanthascreen TR-FRET AR coactivator (D11-FxxLF) assay, AR-LBD wt; details: for IC50: TR-FRET, D11-FxxLF peptide, DHT = EC80
T3 sequence (P10275 669-900 limits assumed): T1 sequence (P10275 669-900 T878A) with A210T

`COc1cc(/C=N/NC(=O)c2cc3c(ccc4ccccc43)o2)cc(OC)c1O` [MDG506] was tested, and the IC50 (AR-LBD T877A mutant) was 33.2 ± 5.9 µM, the “effect on ERα recruitment of fluorescent labelled PGC1-α” value ([1]; 100 μM to 45 nM) was “partially inhibit” and the IC50 ([1]; TR-FRET, ± SEM (n = 6), read-out: NR LBDs IC50 (μM) ER-α) was over 100 µM. The “effect on ERβ recruitment of fluorescent labelled PGC1-α” value ([2]; 100 μM to 45 nM) was “partially inhibit”, the IC50 ([2]; TR-FRET, ± SEM (n = 6), read-out: NR LBDs IC50 (μM) ER-β) was over 100 µM and the “type of AR antagonism (full / partial)” value (AR-LBD wt; TR-FRET in agonist and antagonist mode) was “full AR antagonists”. The IC50 (AR-LBD wt; read-out: AR (wt)) was 26.3 ± 3.8 µM and the IC50 (AR-LBD wt; read-out: Activity (AR wt TR-FRET)) was 26.3 ± 3.8 µM.
